Values after ≈ are worked out from the molar mass of the structure shown. Where two headings read alike, the source gives them in different places. Where a SMILES comes first, the peptide text is derived from it. Where no end group is shown, it is not given here. [ ]: non-standard residue; d: D form.
What was measured:
[1] = system: Acinetobacter baumannii (ATCC 19606); type: cell-based
Method: (§1) The MIC values of SEQ ID NO: 2 and SEQ ID NO: 19 were also determined against a range of multidrug-resistant isolates, including clinical and laboratory strains. Peptides, maintained at −20° C. in solid form for storage purposes, were subsequently dissolved in 0.01% (v/v) acetic acid (Sigma-Aldrich) to a stock concentration of […]. The stock solutions were made fresh for each experiment. Eighteen (18) bacterial isolates obtained from the Facility for Anti-Infective Drug Development and Innovation, Victoria, Australia (FADDI) as listed in Table 2 were maintained as stock cultures in Tryptic Soya Broth plus 20% (v/v) glycerol at a temperature of −80° C., and subcultured onto Nutrient Agar for each experiment. MIC values were determined in cation-adjusted Mueller-Hinton broth (CAMHB) and Mueller-Hinton broth (MHB) using standard broth micro-dilution methods.

[2] = system: Pseudomonas aeruginosa (ATCC 27853); type: cell-based
Method: as §1

[3] = system: Klebsiella pneumoniae (ATCC 13883); type: cell-based
Method: as §1

Escherichia coli DH5 α = type: cell-based
Method: as §1

S. aureus (ATCC 43300) = type: cell-based, Staphylococcus aureus; settings: ATCC 43300, 17 h
Method: as §1

E. coli DH5α = settings: for antimicrobial activity, cleared area in radial diffusion assay (FIG. 4): 5 μl of 250 μg/ml solutions
Method: Briefly, approximately 4×10^6 of mid-logarithmic-phase organisms were grown on plates in 11 ml of warm 0.8% agarose containing 0.03% (w/v) Tryticase soy broth (TSB) powder, with or without 100 mM NaCl, buffered with 10 mM sodium phosphate, pH 7.4. The test peptide was serially diluted in acidified water (0.01% acetic acid), and 5 μl of diluted peptide sample was loaded in a 2.5 diameter well in the agarose. A 10 ml overlay gel composed of 6% TSB, 0.8% agarose and 10 mM sodium phosphate buffer (pH 7.4) was poured into each well. Plates were then incubated overnight to allow the surviving organisms to form microcolonies. The clear zone were measured to the nearest 0.1 mm using a magnified transilluminator and expressed in units (1 mm=10 U) after subtracting the well diameter. The minimum inhibitory concentration (MIC) is defined by the χ intercept of a regression line through zone diameters obtained from a series of serially diluted peptide samples.

[4] = system: K. pneumoniae strain FADDI 010; type: cell-based, Klebsiella pneumoniae; settings: strain FADDI 010, 17 h
Method: as §1

[5] = system: K. pneumoniae strain FADDI 009; type: cell-based, Klebsiella pneumoniae; settings: strain FADDI 009, 17 h
Method: as §1

[6] = system: Staphylococcus aureus (ATCC 700698); type: cell-based; settings: ATCC 700698, 17 h
Method: as §1

[7] = system: Enterococcus faecium (ATCC 700221); type: cell-based; settings: ATCC 700221, 17 h
Method: as §1

[8] = system: tammar wallaby erythrocytes; type: cell-based
Method: The toxicity of the antimicrobial peptides was determined using a haemolytic assay. In particular, the hemolytic activity of the peptides was determined using tammar wallaby erythrocytes. Fresh erythrocytes were harvested from heparinized blood taken from a tammar wallaby. Erythrocytes were harvested by centrifugation for 3 min at 3000 g. Erythrocytes were then washed three times with PBS (pH 7.4) until the supernatant was essentially colourless. 20 μl two fold serial dilutions of the peptide were mixed with the same volume of erythrocytes in solution 2%) in PBS of each well of a 96-plate. 80 μl PBS was added to each well after the plate was incubated at 37° C. for one hour. Plates were then centrifuged at 3000 g for 5 min. 90 μl of the resulting supernatant was transferred to a flat-bottom microtiter plate and haemoglobin release was monitored by measuring the absorbance at 414 nm with an ELISA plate reader. […] Each sample was performed in triplicate. Percentage hemolysis was calculated by the following formula: [(OD414 peptide−OD414 buffer)/OD414 complete hemolysis−OD414 buffer)]×100%.

[9] = system: Candida albicans (ATCC 753); type: cell-based
[10] = system: Streptococcus agalactiae (ATCC 12927); type: cell-based
[11] = system: P. aeruginosa strain FADDI 002; type: cell-based, Pseudomonas aeruginosa; settings: strain FADDI 002, 17 h
Method: as §1

[12] = system: Staphylococcus aureus (ATCC 25923); type: cell-based
[13] = system: S. aureus strain FADDI 011; type: cell-based, Staphylococcus aureus; settings: strain FADDI 011, 17 h
Method: as §1

S. aureus 700699 = type: cell-based, Staphylococcus aureus; settings: 700699, 17 h
Method: as §1

[14] = system: A. baumannii strain FADDI 007; type: cell-based, Acinetobacter baumannii; settings: strain FADDI 007, 17 h
Method: as §1

[15] = system: A. baumannii strain FADDI 006; type: cell-based, Acinetobacter baumannii; settings: strain FADDI 006, 17 h
Method: as §1

[16] = system: A. baumannii strain FADDI 005 (ATCC 19606 derivative); type: cell-based, Acinetobacter baumannii; settings: 17 hr at 35° C.
Method: as §1
Pseudomonas aeruginosa (ATCC 27853) and S. aureus (ATCC 43300) were included as quality controls in experiments. P. aeruginosa strains FADDI 001 and FADDI 002 are mucoid; and P. aeruginosa strains FADDI 003 and FADDI 004 are non-mucoid. P. aeruginosa strain FADDI 003 also has a small colony morphology. The A. baumannii strain FADDI 005 is a colistin-resistant isolate obtained from Mueller-Hinton agar containing 10 mg/L colistin.

[17] = system: Salmonella choleraesuis (ATCC 14028); type: cell-based
[18] = system: P. aeruginosa (ATCC 28753); type: cell-based, Pseudomonas aeruginosa
[19] = system: Streptococcus equi equi (ATCC 9527); type: cell-based; settings: ATCC 9527
Bacillus subtilis = type: cell-based
[20] = system: Streptococcus pyogenes (ATCC 19615); type: cell-based
[21] = MHB (less than 5 mg/L Mg2+ and 24 mg/L Ca2+), 17 hr at 35° C.

Question: Which MIC [1, 21] does the source give for `CC[C@H](C)[C@H](NC(=O)[C@H](CCCCN)NC(=O)[C@H](CCC(=O)O)NC(=O)[C@H](CCCCN)NC(=O)[C@H](CO)NC(=O)[C@H](CCCCN)NC(=O)[C@H](CCCNC(=N)N)NC(=O)[C@H](Cc1ccccc1)NC(=O)[C@H](Cc1ccccc1)NC(=O)[C@H](CC(=O)O)NC(=O)CNC(=O)[C@H](CC(C)C)NC(=O)[C@@H](N)CC(C)C)C(=O)NCC(=O)N[C@@H](CCCCN)C(=O)N[C@@H](CCC(=O)O)C(=O)N[C@@H](Cc1ccccc1)C(=O)N[C@@H](CCCCN)C(=O)N[C@@H](CCCNC(=N)N)C(=O)N[C@H](C(=O)N[C@H](C(=O)N[C@@H](CCC(N)=O)C(=O)N[C@@H](CCCNC(=N)N)C(=O)N[C@H](C(=O)N[C@@H](CCCCN)C(=O)N[C@@H](CC(=O)O)C(=O)N[C@@H](Cc1ccccc1)C(=O)N[C@@H](CC(C)C)C(=O)N[C@@H](CCCNC(=N)N)C(=O)N[C@@H](CC(N)=O)C(=O)N[C@@H](CC(C)C)C(=O)N[C@H](C(=O)N1CCC[C@H]1C(=O)N[C@@H](CCCNC(=N)N)C(=O)N[C@H](C(=O)N[C@@H](CCC(=O)O)C(=O)N[C@@H](CO)C(=O)O)[C@@H](C)O)C(C)C)[C@@H](C)CC)C(C)C)[C@@H](C)CC` [LL-37, reference compound] here?
Answer: 32 µg/mL (≈ 7.12 µM)

Question: What about the MIC [2, 21] of the same compound?
Answer: >32 µg/mL

Question: What about the MIC [3, 21] of the same compound?
Answer: 32 µg/mL (≈ 7.12 µM)

Question: And the MIC (Escherichia coli DH5 α; microbroth dilution in MHB)?
Answer: 32 µg/mL (≈ 7.12 µM)

Question: Which results are given for `CC[C@@H](C)[C@@H](NC(=O)[C@@H](CO)NC(=O)[C@@H](CC(N)=O)NC(=O)[C@@H](CCCNC(=N)N)NC(=O)[C@@H](Cc1ccccc1)NC(=O)[C@@H](CCCCN)NC(=O)[C@@H](CCCCN)NC(=O)[C@@H](CC(C)C)NC(=O)[C@@H](CCCNC(=N)N)NC(=O)[C@@H](CCCCN)NC(=O)[C@@H](CCCNC(=N)N)NC(=O)[C@@H](CC(C)C)NC(=O)[C@@H](CCCCN)NC(=O)[C@@H](CCCCN)NC(=O)CNC(=O)[C@@H](Cc1ccccc1)NC(=O)CNC(=O)[C@@H](CCCNC(=N)N)NC(=O)[C@H](N)CCCCN)C(=O)N[C@H](CCCCN)C(=O)N[C@H](CCCCN)C(=O)N[C@H](CCCNC(=N)N)C(=O)N[C@H](CC(C)C)C(=O)N[C@H](CCCCN)C(=O)N[C@H](CC(N)=O)C(=O)N[C@H](Cc1ccccc1)C(=O)N[C@H](CC(N)=O)C(=O)N[C@@H](C(=O)N[C@@H](C(=O)N[C@@H](C(=O)N1CCC[C@@H]1C(=O)N[C@@H](C(=O)N1CCC[C@@H]1C(=O)N[C@H](CC(C)C)C(=O)N1CCC[C@@H]1C(N)=O)[C@H](C)CC)[C@H](C)CC)C(C)C)C(C)C` [SEQ ID NO: 9, D-Lys D-Arg D-Gly D-Phe D-Gly D-Lys D-Lys D-Leu D-Arg D-Lys D-Arg D-Leu D-Lys D-Lys D-Phe D-Arg D-Asn D-Ser D-Ile D-Lys D-Lys D-Arg D-Leu D-Lys D-Asn D-Phe D-Asn D-Val D-Val D-Ile D-Pro D-Ile D-Pro D-Leu D-Pro] (H-[dK][dR]G[dF]G[dK][dK][dL][dR][dK][dR][dL][dK][dK][dF][dR][dN][dS][dI][dK][dK][dR][dL][dK][dN][dF][dN][dV][dV][dI][dP][dI][dP][dL][dP]-NH2; N-terminus and C-terminus assumed)?
Answer: MIC ([1]; ATCC 19606, 17 h): 8 µg/mL (≈ 1.9 µM); MIC ([2]; ATCC 27853, 17 h): 4 µg/mL (≈ 0.948 µM); MIC ([3]; ATCC 13883, 17 h): 4 µg/mL (≈ 0.948 µM); MIC (Escherichia coli DH5 α; DH5 α): 4 µg/mL (≈ 0.948 µM); MIC (S. aureus (ATCC 43300)): >32 µg/mL

Question: “D-Lys Arg Gly Phe Gly Lys Lys Leu Arg Lys Arg Leu Lys Lys Phe Arg Asn Ser Ile Lys Lys Arg Leu Lys Asn Phe Asn Val Val Ile Pro Ile Pro Leu D-Pro ([dK]RGFGKKLRKRLKKFRNSIKKRLKNFNVVIPIPL[dP]) [SEQ ID NO: 11]” was tested. Which “antimicrobial activity, cleared area in radial diffusion assay (FIG. 4)” value (“antimicrobial activity, cleared area” for short) (E. coli DH5α; E. coli) did it give?
Answer: exhibits antimicrobial activity

Question: For “D-Pro Leu Pro Ile Pro Ile Val Val Asn Phe Asn Lys Leu Arg Lys Lys Ile Ser Asn Arg Phe Lys Lys Leu Arg Lys Arg Leu Lys Lys Gly Phe Gly Arg D-Lys ([dP]LPIPIVVNFNKLRKKISNRFKKLRKRLKKGFGR[dK]) [SEQ ID NO: 17]”, which “antimicrobial activity, cleared area” value (E. coli DH5α; E. coli) is on record?
Answer: exhibits antimicrobial activity

Question: How did the MIC [4] turn out when “KRGFGKKLRKRLKKFRNSIKKRLKNFNVVIPIPLP-NH2 [SEQ ID NO: 2]” was run?
Answer: 32 µg/mL

Question: What about the MIC [5] of the same compound?
Answer: 4 µg/mL

Question: What about the MIC [6] of the same compound?
Answer: >64 µg/mL

Question: And the MIC (Escherichia coli DH5 α; DH5 α)?
Answer: 2 µg/mL

Question: And the MIC [7]?
Answer: 16 µg/mL

Question: What about the “radial clear zone compared to LL-37 (FIG. 3)” value (E. coli DH5α; 5 μl of 250 μg/ml solutions of each peptide, E. coli) of the same compound?
Answer: larger radial clear zone

Question: What about the “haemolysis at the MIC determined in Example 1” value [8] of the same compound?
Answer: less than 5%

Question: What about the “haemolysis at the majority of concentrations tested (FIGS. 2a and 2b)” value [8] of the same compound?
Answer: did not cause substantial levels of haemolysis

Question: And the “antimicrobial activity in words” value ([9]; Table 1)?
Answer: Weaker antimicrobial activity

Question: And the “antimicrobial activity in words” value ([10]; Table 1)?
Answer: moderate antimicrobial activity

Question: And the MIC [11]?
Answer: 4 µg/mL

Question: And the “antimicrobial activity in words” value ([12]; Table 1)?
Answer: weaker antimicrobial activity

Question: What about the MIC [13] of the same compound?
Answer: >64 µg/mL

Question: What about the MIC (S. aureus 700699) of the same compound?
Answer: >64 µg/mL

Question: And the MIC (S. aureus (ATCC 43300))?
Answer: >64 µg/mL

Question: What about the MIC [14] of the same compound?
Answer: 8 µg/mL

Question: What about the MIC [15] of the same compound?
Answer: >64 µg/mL

Question: What about the MIC ([16]; CAMHB (10.0 mg/L Mg2+ and 24 mg/L Ca2+)) of the same compound?
Answer: 8 µg/mL

Question: What about the MIC ([16]; MHB (less than 5 mg/L Mg2+ and 24 mg/L Ca2+)) of the same compound?
Answer: 4 µg/mL

Question: “PLPIPIVVNFNKLRKKISNRFKKLRKRLKKGFGRK [SEQ ID NO: 13]” was tested. Which “antimicrobial activity, cleared area” value (E. coli DH5α; E. coli) did it give?
Answer: exhibits antimicrobial activity

Question: What does the source list for “RKKGSKRHKPGSYSVIALGKPGVKKSPYMEAL-NH2 [SEQ ID NO: 31]”?
Answer: MIC [17]: >250 µg/mL; MIC (E. coli DH5α; DH5 α): 1.16 ± 0.67 µg/mL; antimicrobial activity in words (E. coli DH5α; Table 1): strong protection; MIC [18]: 57.8 µg/mL; MIC ([9]; ATCC 753): >250 µg/mL; MIC ([10]; ATCC 12927): 5.44 ± 0.11 µg/mL; MIC ([12]; ATCC 25923): 8.5 ± 0.23 µg/mL; MIC [19]: 8.66 ± 0.45 µg/mL; MIC (Bacillus subtilis): 14.03 ± 0.25 µg/mL; MIC ([20]; ATCC 19615): 3.43 ± 0.34 µg/mL; antimicrobial activity in words ([20]; Table 1): moderate protection

Reference: patent publication US8383125B2, “Antimicrobial protein” (Agriculture Victoria Services Pty, Limited, priority 2006, dated 2013)
